The values that follow come from patent US11345710B2, “Imidazo[1,2-b]pyrimido[4,5-d]pyridazin-5(6H)-ones and the use thereof” (IMPACT THERAPEUTICS (SHANGHAI), INC, priority 2017, dated 2022).

One assay deals with NCI-H1299 cells. Kind of assay: MTT based cell viability assay on NCI-H1299 cells. The conditions noted are these: Homo sapiens, read-out: IC50, growth inhibition on NCI-H1299 cells. On the procedure: Determination of the Cell Growth Inhibiting Activity of 6-(2,6-dichlorophenyl)-2-((4-(4-methylpiperazin-1-yl)phenyl)amino)imidazo[1,2-b]pyrimido[4,5-d]pyridazin-5(6H)-one and Analogs on NCI-H1299 Cells Using a MTT Based Cell Viability Assay
The thawed NCI-H1299 cells were cultured and passaged to the third generation, and the growth state was good and the confluence was about 90%, which began to be used in the experiment. The NCI-H1299 cells were digested with trypsin, centrifuged at 800 rpm for 5 min, the supernatant was discarded, resuspended with fresh culture medium, and counted. 1000 Cells are seeded to each well of a 96-well plate. The cells are incubated at 37° C. in a 5% CO2 cell culture incubator overnight. The tested sample (including the tested compound and the reference compound AZD1775) was diluted continuously to 8 concentrations (the last concentration was negative control of DMSO) with a 1:3 and 1:10 dilution in DMSO respectively: 10 μM, 3.3 μM, 1 μM, 0.33 μM, 0.1 μM, 0.033 μM, 0.01 μM, 0 μM (the final concentration of DMSO was 1%). 5 μL of each concentration was added to 120 μL of culture medium (25 times diluted), and the mixture was shaken well. The overnight cells were taken and the culture medium was removed, 195 μL of fresh culture medium was added to each well, and 5 μL of diluted culture medium containing the corresponding concentration of the tested sample was added respectively, and the culture plate was then placed in the 5% CO2 cell culture incubator at 37° C. for 3 d. After removing the original solution and adding 100 μL of fresh serum-free DMEM culture medium containing MTT (0.5 mg/mL) per well, the culture was continued. The original solution was removed after 4 hrs and 100 μl DMSO was added to each well. The 96-well cell culture plates were shaken away from light for 10 min and readed in a multifunctional reader at 552/630/690 nm to give absorption values (OD values). The data were analyzed using a graphic software (Graph Pad Prism 5.0) and the inhibitory activity of the compound on cell proliferation was plotted in terms of cell survival and compound concentration. The IC50 values were fitted by the S-shaped dose-response curve equation as follows: Y=100/(1+10^(Log C−Log IC50)), where C was the concentration of testing compounds.

The next assay has as its target Wee1 kinase (h) (Homo sapiens, UniProt P30291). Kind of assay: Wee1 kinase (h) detection method, [γ-33P]-ATP filter assay. It is filed as biochemical. The conditions noted are these: 10 μM ATP, 40 minutes at room temperature. On the procedure: Wee1 kinase (h) was incubated with 20 mM Tris/HCl pH 8.5, 0.2 mM EDTA, 500 μM […], 10 mM MgAcetate and 10 μM [γ-^33P]-ATP. Then the stock solution of all compounds under test with 50× concentration in 100% DMSO was added to make the final concentration of 1/0.1/0.01 μM, and then mixed the mixture well. The reaction was initiated by the addition of the Mg/ATP mix. After incubation for 40 minutes at room temperature, the reaction was stopped by the addition of phosphoric acid to a concentration of 0.5%. 10 μL of the reaction liquor was then spotted onto a P30 filtermat and washed four times in 0.425% phosphoric acid and once in methanol prior to drying and scintillation counting. Each compound sample was duplicated in duplicate. The negative control was lack of all the components of Wee1 enzyme, and the positive was addition of 30% phosphoric acid to terminate the reaction. The Wee1 inhibitor AZD1775 was detected at 10/0.01 μM at the same experiment condition.

In the next assay the test system is LoVo cells. Description: MTT based cell viability assay on LoVo cells. The conditions noted are these: Homo sapiens, 72 h, read-out: IC50, growth inhibition on LoVo cells. The protocol: Determination of the Cell Growth Inhibiting Activity of 6-(2,6-dichlorophenyl)-2-((4-(4-methylpiperazin-1-yl)phenyl)amino)imidazo[1,2-b]pyrimido[4,5-d]pyridazin-5(6H)-one and Analogs Thereof on LoVo Cells Using a MTT Based Cell Viability Assay
The thawed LoVo cells were cultured and passaged to the third generation, and the growth state was good and the confluence was about 90%, which began to be used in the experiment. The LoVo cells were digested with trypsin, centrifuged at 800 rpm for 5 min, the supernatant was discarded, resuspended with fresh culture medium, and counted. 6000 Cells are seeded to each well of a 96-well cell culture plate. The cells were incubated at 37° C. in a 5% CO2 cell culture incubator overnight. The tested sample (including the tested compound and the reference compound AZD1775) was diluted continuously to 8 concentrations (the last concentration was negative control of DMSO) with a 1:3 and 1:10 dilution in DMSO respectively: 10 μM, 3.3 μM, 1 μM, 0.33 μM, 0.1 μM, 0.033 μM, 0.01 μM, 0 μM (the final concentration of DMSO was 1%). 5 μL of each concentration was added to 120 μL of culture medium (25 times diluted), and the mixture was shaken well. The overnight cells were taken and the culture medium was removed, 195 μL of fresh culture medium was added to each well, and 5 μL of diluted culture medium containing the corresponding concentration of the tested sample was added respectively, and the culture plate was then placed in the 5% CO2 cell culture incubator at 37° C. for 3 d. After removing the original solution and adding 100 μL of fresh serum-free DMEM culture medium containing MTT (0.5 mg/mL) per well, the culture was continued. The original solution was removed after 4 hrs and 100 μl DMSO was added to each well. The 96-well cell culture plates were shaken away from light for 10 min and readed in a multifunctional reader at 552/630/690 nm to give absorption values (OD values). The data were analyzed using a graphic software (Graph Pad Prism 5.0) and the inhibitory activity of the compound on cell proliferation was plotted in terms of cell survival and compound concentration. The IC50 values were fitted by the S-shaped dose-response curve equation as follows: Y=100/(1+10^(Log C−Log IC50)), where C was the concentration of testing compounds.

The mark [1] stands for this setting: 72 h, NCI-H1299 cells, 3 d, MTT.

Where two headings read alike, the source gives them in different places.

Chain of Wee1 kinase (h) (P30291 whole entry): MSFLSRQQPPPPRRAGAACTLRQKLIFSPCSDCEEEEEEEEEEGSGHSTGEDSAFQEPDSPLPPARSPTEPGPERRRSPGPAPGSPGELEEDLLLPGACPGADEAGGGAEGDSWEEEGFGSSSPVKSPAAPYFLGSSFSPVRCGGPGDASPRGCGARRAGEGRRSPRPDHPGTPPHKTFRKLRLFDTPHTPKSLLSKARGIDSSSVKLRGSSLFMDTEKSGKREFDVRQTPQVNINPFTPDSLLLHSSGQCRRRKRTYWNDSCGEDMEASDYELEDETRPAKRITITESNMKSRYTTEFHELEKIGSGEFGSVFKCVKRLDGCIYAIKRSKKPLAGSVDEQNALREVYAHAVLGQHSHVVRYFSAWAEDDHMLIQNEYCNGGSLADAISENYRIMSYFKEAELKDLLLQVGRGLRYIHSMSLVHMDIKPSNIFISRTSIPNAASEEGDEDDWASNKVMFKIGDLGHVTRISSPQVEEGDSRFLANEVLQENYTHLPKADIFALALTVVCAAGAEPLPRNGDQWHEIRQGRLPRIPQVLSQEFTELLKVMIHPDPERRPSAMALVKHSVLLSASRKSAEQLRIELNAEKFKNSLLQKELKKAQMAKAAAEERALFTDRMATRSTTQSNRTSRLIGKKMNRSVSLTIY

On to `Cc1cc(Nc2ncc3c(=O)n(-c4c(C)cccc4Cl)n4ccnc4c3n2)cc(C)c1N1CCN(C)CC1` [Example 17, 6-(2-chloro-6-methylphenyl)-2-((3,5-dimethyl-4-(4-methylpiperazin-1-yl)phenyl)amino)imidazo[1,2-b]pyrimido[4,5-d]pyridazin-5(6H)-one], for which the IC50 in the assay on NCI-H1299 cells (setting [1]) was determined as 802 nM; in the assay with LoVo cells (LoVo cells, 3 d, MTT), 902 nM. Further, the “Inh. (%) of Wee1 kinase” value on Wee1 kinase (h) (C 0.01 μm) is given as 5%; at Wee1 kinase (h) (C 0.1 μm) it was 56%; on Wee1 kinase (h) (C 1 μm), 96%.

Take `CN1CCN(c2ccc(Nc3ncc4c(=O)n(-c5c(F)cccc5F)n5ccnc5c4n3)cc2Cl)CC1` [Example 18, 6-(2,6-difluorophenyl)-2-((3-chloro-4-(4-methylpiperazin-1-yl)phenyl)amino)imidazo[1,2-b]pyrimido[4,5-d]pyridazin-5(6H)-one]: the IC50 came out at 1080 nM with NCI-H1299 cells (setting [1]) and 579 nM in the assay on LoVo cells (LoVo cells, 3 d, MTT). The “Inh. (%) of Wee1 kinase” value on Wee1 kinase (h) (C 1 μm) was determined as 87%.

In the case of `Cc1cc(Nc2ncc3c(=O)n(-c4c(F)cccc4F)n4ccnc4c3n2)cc(F)c1N1CCN(C)CC1` [Example 19, 6-(2,6-difluorophenyl)-2-((3-fluoro-5-methyl-4-(4-methylpiperazin-1-yl)phenyl)amino)imidazo[1,2-b]pyrimido[4,5-d]pyridazin-5(6H)-one], the IC50 came to 743 nM in the assay with NCI-H1299 cells (setting [1]) and 408 nM with LoVo cells (LoVo cells, 3 d, MTT). The “Inh. (%) of Wee1 kinase” value on Wee1 kinase (h) (C 1 μm) is 92%.

Turning to `Cc1cc(Nc2ncc3c(=O)n(-c4c(F)cccc4F)n4ccnc4c3n2)cc(Cl)c1N1CCN(C)CC1` [Example 20, 6-(2,6-difluorophenyl)-2-((3-chloro-5-methyl-4-(4-methylpiperazin-1-yl)phenyl)amino) imidazo[1,2-b]pyrimido[4,5-d]pyridazin-5(6H)-one], the IC50 worked out at 597 nM in the assay on NCI-H1299 cells (setting [1]) and 364 nM in the assay with LoVo cells (LoVo cells, 3 d, MTT). Further, the “Inh. (%) of Wee1 kinase” value at Wee1 kinase (h) (C 1 μm) was determined as 77%.

On to `CN1CCN(c2ccc(Nc3ncc4c(=O)n(-c5c(F)cccc5Cl)n5ccnc5c4n3)cc2Cl)CC1` [Example 21, 6-(2-chloro-6-fluorophenyl)-2-((3-chloro-4-(4-methylpiperazin-1-yl)phenyl)amino)imidazo[1,2-b]pyrimido[4,5-d]pyridazin-5(6H)-one], for which the IC50 in the assay on NCI-H1299 cells (setting [1]) was found to be 511 nM; with LoVo cells (LoVo cells, 3 d, MTT) it was 259 nM. Further, at Wee1 kinase (h) (C 1 μm), the “Inh. (%) of Wee1 kinase” value turned out to be 95%.

As to `Cc1cc(Nc2ncc3c(=O)n(-c4c(F)cccc4Cl)n4ccnc4c3n2)cc(F)c1N1CCN(C)CC1` [Example 22, 6-(2-chloro-6-fluorophenyl)-2-((3-fluoro-5-methyl-4-(4-methylpiperazin-1-yl)phenyl)amino)imidazo[1,2-b]pyrimido[4,5-d]pyridazin-5(6H)-one], the IC50 was 376 nM in the assay with NCI-H1299 cells (setting [1]) and 138 nM in the assay with LoVo cells (LoVo cells, 3 d, MTT). The “Inh. (%) of Wee1 kinase” value at Wee1 kinase (h) (C 0.01 μm) turned out to be 21%; on Wee1 kinase (h) (C 1 μm) it was 95%.

`Cc1cc(Nc2ncc3c(=O)n(-c4c(F)cccc4Cl)n4ccnc4c3n2)cc(Cl)c1N1CCN(C)CC1` [Example 23, 6-(2-chloro-6-fluorophenyl)-2-((3-chloro-5-methyl-4-(4-methylpiperazin-1-yl)phenyl)amino)imidazo[1,2-b]pyrimido[4,5-d]pyridazin-5(6H)-one]: the IC50 was determined as 528 nM with NCI-H1299 cells (setting [1]) and 195 nM in the assay with LoVo cells (LoVo cells, 3 d, MTT). At Wee1 kinase (h) (C 1 μm), the “Inh. (%) of Wee1 kinase” value is listed as 91%.

Turning to `Cc1cc(Nc2ncc3c(=O)n(-c4c(F)cccc4Cl)n4ccnc4c3n2)cc(F)c1N1CCC(N(C)C)CC1` [Example 25, 6-(2-chloro-6-fluorophenyl)-2-((3-fluoro-5-methyl-4-(4-(dimethylamino)piperidin-1-yl)phenyl)amino)imidazo[1,2-b]pyrimido[4,5-d]pyridazin-5(6H)-one], the IC50 in the assay with NCI-H1299 cells (setting [1]) stood at 249 nM; in the assay with LoVo cells (LoVo cells, 3 d, MTT) it was 144 nM. The “Inh. (%) of Wee1 kinase” value on Wee1 kinase (h) (C 0.01 μm) came out at 10%; on Wee1 kinase (h) (C 1 μm), 96%.

Turning to `Cc1cc(Nc2ncc3c(=O)n(-c4c(Cl)cccc4Cl)n4ccnc4c3n2)ccc1N1CCNCC1` [Example 26, 6-(2,6-dichlorophenyl)-2-((3-methyl-4-(piperazin-1-yl)phenyl)amino)imidazo[1,2-b]pyrimido[4,5-d]pyridazin-5(6H)-one], the IC50 turned out to be 268 nM in the assay with NCI-H1299 cells (NCI-H1299, 72 h) and 201 nM in the assay on LoVo cells (LoVo). Besides, the “Inh. (%) of Wee1 kinase” value at Wee1 kinase (h) (C 0.01 μm) is 27%.

In the case of `CN1CCN(c2ccc(Nc3ncc4c(=O)n(-c5c(Cl)cccc5Cl)n5ccnc5c4n3)cc2Cl)CC1` [Example 27, 6-(2,6-dichlorophenyl)-2-((3-chloro-4-(4-methylpiperazin-1-yl)phenyl)amino)imidazo[1,2-b]pyrimido[4,5-d]pyridazin-5(6H)-one], the IC50 in the assay with NCI-H1299 cells (NCI-H1299, 72 h) is 470 nM; in the assay on LoVo cells (LoVo), 370 nM. The entries for the “Inh. (%) of Wee1 kinase” value on Wee1 kinase (h) (C 0.01 μm), on Wee1 kinase (h) (C 0.1 μm) and at Wee1 kinase (h) (C 1 μm) were 17%, 76% and 97%, respectively.

Turning to `Cc1cc(Nc2ncc3c(=O)n(-c4c(Cl)cccc4Cl)n4ccnc4c3n2)cc(F)c1N1CCN(C)CC1` [Example 28, 6-(2,6-dichlorophenyl)-2-((3-fluoro-5-methyl-4-(4-methylpiperazin-1-yl)phenyl)amino)imidazo[1,2-b]pyrimido[4,5-d]pyridazin-5(6H)-one], the IC50 in the assay with NCI-H1299 cells (NCI-H1299, 72 h) was found to be 295 nM; in the assay with LoVo cells (LoVo) it was 266 nM. Further, the entries for the “Inh. (%) of Wee1 kinase” value at Wee1 kinase (h) (C 0.01 μm) and at Wee1 kinase (h) (C 1 μm) were 15% and 95%, respectively.

On to `Cc1cc(Nc2ncc3c(=O)n(-c4c(Cl)cccc4Cl)n4ccnc4c3n2)cc(Cl)c1N1CCN(C)CC1` [Example 29, 6-(2,6-dichlorophenyl)-2-((3-chloro-5-methyl-4-(4-methylpiperazin-1-yl)phenyl)amino)imidazo[1,2-b]pyrimido[4,5-d]pyridazin-5(6H)-one], for which the IC50 in the assay on NCI-H1299 cells (NCI-H1299, 72 h) stood at 400 nM; with LoVo cells (LoVo) it was 272 nM. Besides, the “Inh. (%) of Wee1 kinase” value at Wee1 kinase (h) (C 0.01 μm) is recorded as 21%; at Wee1 kinase (h) (C 0.1 μm), 65%; at Wee1 kinase (h) (C 1 μm), 93%.
